Assay results published in patent US20110098325A1, “PYRIDINE BENZAMIDES AND PYRAZINE BENZAMIDES USED AS PKD INHIBITORS” (CANCER RESEARCH TECHNOLOGY LIMITED, priority 2006, published 2011).

Target: T1, Murine PKD1 kinase domain (Mus musculus, UniProt Q62101)
T1 construct: hexahistidine (pFastBac HTb leader) (N); made in house; host or cells: Sf9 insect cells, baculovirus (Bac-to-Bac HT, pFastBac HTb)
T1 sequence (Q62101 with tags, fused parts or gaps R683W): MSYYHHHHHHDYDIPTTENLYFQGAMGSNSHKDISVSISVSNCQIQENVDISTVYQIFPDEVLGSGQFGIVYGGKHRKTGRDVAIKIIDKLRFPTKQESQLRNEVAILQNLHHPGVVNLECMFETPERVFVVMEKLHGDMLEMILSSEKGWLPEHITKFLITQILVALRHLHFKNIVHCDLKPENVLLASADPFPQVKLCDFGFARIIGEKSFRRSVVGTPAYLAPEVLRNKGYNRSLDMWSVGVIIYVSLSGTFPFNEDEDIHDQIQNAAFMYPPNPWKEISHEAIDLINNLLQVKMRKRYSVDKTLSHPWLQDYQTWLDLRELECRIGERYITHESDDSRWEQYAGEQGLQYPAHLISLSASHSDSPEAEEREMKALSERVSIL
Assay: PKD1 (Murine Kinase Domain) Enzyme Activity Assay (IMAP fluorescence polarisation)
Assay type: biochemical
Conditions: 10 μM ATP, 60 minutes, room temperature
From the text: The DNA sequence corresponding to murine PKD1 (see FIG. 1) was inserted into pFastBAc Htb (Invitrogen, USA) at BamH1 and EcoR1 sites using standard molecular biology techniques.
The PKD1 described above was expressed as a hexahistidine tagged protein construct using a commercially available baculoviral expression system that induces protein production in insect cell culture (Bac-to-Bac® HT Baculovirus Expression System, Invitrogen). Protein was typically expressed by inoculating 1 L of sf9 cells with a genetically modified baculovirus containing the gene for the kinase domain of PKD1. Sf9 cells were obtained from ICR Ltd.
Purification of PKD1 was achieved by standard chromatographic procedures. Capture from crude centrifuged lysed cell supernatant was achieved using metal affinity chromatography (GE Healthcare Life Sciences, HiTrap Chelating chromatography column), and fractions showing PKD1 (as assessed by gel electrophoresis and western blot) were further purified by a single polish purification step performed using a mono Q anion exchange chromatography system (GE Healthcare Life Sciences, HiTrap HP Q column). […] This protocol describes the method for screening compounds as inhibitors of Protein Kinase D activity in a 384 well microplate format fluorescence polarisation IMAP assay performed using the Biomek FX.
Kinase Enzyme: Murine PKD1 kinase domain at ˜100 μg/mL, was purified from baculovirus (as described above), obtained from aliquots stored at −70° C. PKD was prepared with a final concentration of 0.1 μg/mL by diluting 1:300 in Reaction Buffer (30 μL per 9 mL-5 mL per plate with an additional 4 mL dead volume) and vortexing prior to use. It was necessary to check this concentration regularly in case of enzyme degradation.
(also known as MAPKAP K2 substrate) was obtained from Molecular Devices (Product code R7127). It was used at 300 nM by diluting 20 μM stock 1:66 in Kinase/Reaction Buffer (135 μL per 9 mL; 75 μL per 5 mL Reaction Buffer for blank wells requiring <1 mL per place with an additional 4 mL dead volume).
A 1 mM ATP stock in Reaction Buffer was prepared from a 10 mM stock in 20 mM NaOH and stored as aliquots at −70° C. It was used at 40 μM by diluting 1 mM stock 1:25 in Reaction Buffer (240 μL per 6 mL-2 mL per plate with an additional 4 mL dead volume) and vortexing prior to use.
IMAP Reagents: IMAP Binding Reagent (product code R7207) and Binding Buffer (product code R7208) were obtained from Molecular Devices and stored at +4° C. The beads were gently re-suspended before diluting by 1:400 in buffer (Binding Buffer is supplied as a 5× stock and so was diluted with water prior to use) and then vortexing before addition to wells. 16 mL water with 4 mL Binding Buffer and 50 μL Binding Reagent were used per plate (17 mL per plate with an additional 3 mL dead volume).
13 μL Substrate in Reaction Buffer was added to ‘blank’ wells to give 200 nM reaction concentration. […] 2 μL 10% DMSO/water was added to ‘blank’ and ‘control’ wells. 5 μL ATP in Reaction Buffer was added to all wells to give 10 μM reaction concentration. The reaction mixture was then incubated at room temperature for 60 minutes. The incubation period was followed by the addition of 40 μL IMAP Binding Reagent in Binding Buffer to all wells. The reaction was then further incubated at room temperature for […].
Percentage inhibition was calculated based on activity of the test sample minus the average values in the blank wells relative to the average values measured in control wells minus the average values in the blank wells.
IC50 values were calculated from 10 point dose sigmoid ‘dose-response’ curves using Xlfit software (IDBS inc, USA). Data were fitted to a 4 parameter logistic model/sigmoidal dose response:
where: A=fit minimum (locked to 0); B=fit maximum (locked to 100); C=fit midpoint (pre-fit to 1); D=slope at linear portion of curve, hillslope (pre-fit to 0.1)

**Q.** With `COc1cccc(-c2cncc(-c3cccc(C(=O)NCCCN(C)C)c3)n2)c1` [X-001, N-(3-Dimethylamino-propyl)-3-[6-(3-methoxy-phenyl)-pyrazin-2-yl]-benzamide] as the compound, how does the IC50 read?
**A.** 1000 to 10000 nM

**Q.** How did the IC50 turn out when `COc1ccccc1-c1cncc(-c2cccc(C(=O)NCCN(C)C)c2)n1` [X-002, N-(2-Dimethylamino-ethyl)-3-[6-(2-methoxy-phenyl)-pyrazin-2-yl]-benzamide] was run?
**A.** 1000 to 10000 nM

**Q.** Which IC50 does the source give for `COc1cc(-c2cncc(-c3cccc(C(=O)NCCN(C)C)c3)n2)cc(OC)c1OC` [X-003, N-(2-Dimethylamino-ethyl)-3-[6-(3,4,5-trimethoxy-phenyl)-pyrazin-2-yl]-benzamide] here?
**A.** 1000 to 10000 nM

**Q.** `CN(C)CCCNC(=O)c1cccc(-c2cncc(-c3ccc(O)cc3)n2)c1` [X-004, N-(3-Dimethylamino-propyl)-3-[6-(4-hydroxy-phenyl)-pyrazin-2-yl]-benzamide] was tested. Which IC50 did it give?
**A.** < 1000 nM

**Q.** Which IC50 does the source give for `CN(C)CCNC(=O)c1cccc(-c2cncc(-c3ccc(CO)cc3)n2)c1` [X-005, N-(2-Dimethylamino-ethyl)-3-[6-(4-hydroxymethyl-phenyl)-pyrazin-2-yl]-benzamide] here?
**A.** < 1000 nM

**Q.** Which IC50 does the source give for `CC(=O)Nc1cccc(-c2cncc(-c3cccc(C(=O)NCCCN(C)C)c3)n2)c1` [X-006, 3-[6-(3-Acetylamino-phenyl)-pyrazin-2-yl]-N-(3-dimethylamino-propyl)-benzamide] here?
**A.** < 1000 nM

**Q.** For `CN1CCN(C(=O)c2cccc(-c3cnc(N)c(-c4cccc5c4oc4ccccc45)n3)c2)CC1` [X-008, [3-(5-Amino-6-dibenzofuran-4-yl-pyrazin-2-yl)-phenyl]-(4-methyl-piperazin-1-yl)-methanone], which IC50 is on record?
**A.** < 1000 nM

**Q.** Which IC50 does the source give for `COc1cc(-c2cncc(-c3cccc(C(=O)N4CCNCC4)c3)n2)ccc1O` [X-010, {3-[6-(4-Hydroxy-3-methoxy-phenyl)-pyrazin-2-yl]-phenyl}-piperazin-1-yl-methanone] here?
**A.** 1000 to 10000 nM

**Q.** For `CN(C)CCNC(=O)c1cccc(-c2cnc(N)c(-c3cccc4c3oc3ccccc34)n2)c1` [X-012, 3-(5-Amino-6-dibenzofuran-4-yl-pyrazin-2-yl)-N-(2-dimethylamino-ethyl)-benzamide], which IC50 is on record?
**A.** < 1000 nM

**Q.** For `CN(C)CCNC(=O)c1cccc(-c2cncc(-c3cccc4c3oc3ccccc34)n2)c1` [X-013, 3-(6-Dibenzofuran-4-yl-pyrazin-2-yl)-N-(2-dimethylamino-ethyl)-benzamide], which IC50 is on record?
**A.** < 1000 nM

**Q.** Which IC50 does the source give for `COc1ccccc1-c1nc(-c2cccc(C(=O)NCCN(C)C)c2)cnc1N` [X-015, 3-[5-Amino-6-(2-methoxy-phenyl)-pyrazin-2-yl]-N-(2-dimethylamino-ethyl)-benzamide] here?
**A.** 1000 to 10000 nM

**Q.** `COc1cc(-c2nc(-c3cccc(C(=O)NCCN(C)C)c3)cnc2N)ccc1F` [X-016, 3-[5-Amino-6-(4-fluoro-3-methoxy-phenyl)-pyrazin-2-yl]-N-(2-dimethylamino-ethyl)-benzamide] was tested. Which IC50 did it give?
**A.** < 1000 nM

**Q.** `COc1cc(-c2cncc(-c3cccc(C(N)=O)c3)n2)ccc1O` [X-018, 3-[6-(4-Hydroxy-3-methoxy-phenyl)-pyrazin-2-yl]-benzamide] was tested. Which IC50 did it give?
**A.** 1000 to 10000 nM

**Q.** For `COc1cc(-c2cncc(-c3cccc(C(=O)NC4CCN(C)CC4)c3)n2)ccc1O` [X-019, 3-[6-(4-Hydroxy-3-methoxy-phenyl)-pyrazin-2-yl]-N-(1-methyl-piperidin-4-yl)-benzamide], which IC50 is on record?
**A.** < 1000 nM

**Q.** `COc1cc(-c2cncc(-c3cccc(C(=O)NCCN)c3)n2)ccc1O` [X-021, N-(2-Amino-ethyl)-3-[6-(4-hydroxy-3-methoxy-phenyl)-pyrazin-2-yl]-benzamide] was tested. Which IC50 did it give?
**A.** < 1000 nM

**Q.** `CCN(CC)CCNC(=O)c1cccc(-c2cncc(-c3ccc(O)c(OC)c3)n2)c1` [X-022, N-(2-Diethylamino-ethyl)-3-[6-(4-hydroxy-3-methoxy-phenyl)-pyrazin-2-yl]-benzamide] was tested. Which IC50 did it give?
**A.** < 1000 nM

**Q.** For `CN(C)CCNC(=O)c1cccc(-c2cnc(N)c(-c3ccc4cc(O)ccc4c3)n2)c1` [X-023, 3-[5-Amino-6-(6-hydroxy-naphthalen-2-yl)-pyrazin-2-yl]-N-(2-dimethylamino-ethyl)-benzamide], which IC50 is on record?
**A.** < 1000 nM
